The numbers were not newly measured in patent US8475839B2 (Novartis AG, priority 2006, dated 2013), which cites them from elsewhere.

Assay in series [1]: not given
This is another data set of the same source.

As for `CCOC(=O)C1=C(COCCN)NC(C)=C(C(=O)OC)C1c1ccccc1Cl` (centres unmarked) [Amlodipine besylate, 3-ethyl-5-methyl-2(2-aminoethoxymethyl)-4-(2-chlrorophenyl)-1,4-dihydro-6-methyl-3,5-pyridinedicarboxylate benzenesulphonate], the absolute oral bioavailability is on record as 64-90%. In series [1], the solubility in water result is “slightly soluble”.
Take `NS(=O)(=O)c1cc2c(cc1Cl)NCNS2(=O)=O` [Hydrochlorothiazide]: the absolute oral bioavailability is given as 60-80%.
On to `CCCCC(=O)N(Cc1ccc(-c2ccccc2-c2nnn[nH]2)cc1)[C@H](C(=O)O)C(C)C` [valsartan, (S)-N-valeryl-N-{[2′-(1H-tetrazole-5-yl)-biphenyl-4-yl]-methyl}-valine], for which the absolute oral bioavailability result is reported as “about 25%”. Besides, the “absolute oral bioavailability, wide range” value (range around the about 25% value) was 10-35%.
